Assay [1] concerns the target T1, LRH-1 (Homo sapiens, UniProt O00482).
T1 construct: The transfected plasmids included full-length LRH-1 in a pCI vector; expressed in transfected cells; host or cells: HeLa
Kind of assay: Luciferase reporter assay (SHP-luc) in HeLa cells transfected with full-length LRH-1. The conditions noted are these: for pEC50 / EC50 (μM): HeLa cells, SHP-luc reporter, 24 hours, 0.03-30 μM; for Relative Efficacy: fold increase over baseline (DMSO-treated cells) relative to the fold increase induced by RJW100. The assay is classed as cell-based. Here is the method: EC50 and Relative Activity values were calculated from luciferase reporter assays.
Background: In a reporter assay the amount or activity of a reporter protein is the signal.

In assay [2] the target is T2, LRH-1 LBD (Homo sapiens, UniProt O00482).
T2 construct: LRH-1 LBD (residues 299-541) in the pMSC7 vector was expressed in BL21 (DE3) pLysS E. coli; made in house; host or cells: E. coli BL21 (DE3) pLysS
T2 sequence (O00482 299-541): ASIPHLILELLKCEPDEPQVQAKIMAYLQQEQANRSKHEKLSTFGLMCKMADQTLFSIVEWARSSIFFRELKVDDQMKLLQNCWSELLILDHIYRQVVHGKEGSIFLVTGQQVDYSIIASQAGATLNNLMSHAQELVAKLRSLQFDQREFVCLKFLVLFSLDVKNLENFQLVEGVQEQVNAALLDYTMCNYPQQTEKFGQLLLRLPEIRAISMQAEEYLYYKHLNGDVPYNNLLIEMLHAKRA
The assay is described as follows: Thermofluor (DSF) assay, purified LRH-1 LBD-His protein. It counts as binding. The conditions noted are these: for ΔTm at 50 µM: read-out: ΔTm (mean +/− SEM) (° C.). How it is done: Thermofluor assays—Purified LRH-1 LBD-His protein (0.2 mg/ml) was incubated overnight with 50 μM of each compound at 4° C. The final DMSO concentration in the reactions was 1%. SYPRO orange dye (Invitrogen) was then added at a 1:1000 dilution. Reactions were heated at a rate of 0.5° C. per minute, using a StepOne Plus Real Time PCR System (ThermoFisher). […] Data were analyzed by first subtracting baseline fluorescence (ligands+SYPRO with no protein) and then fitting the curves using the Bolzman equation (GraphPad Prism, v6) to determine the Tm. […]
(DSF heats the sample and reads unfolding from a dye or from intrinsic fluorescence.)

The mark [3] stands for this setting: 50 μM compound, relative to DLPC-bound LRH-1.

pEC50: −log10 of the molar value. Some results are limits rather than exact numbers.

A word on the pEC50: it is the negative decadic logarithm of the EC50, by convention in mol/L.

T1 sequence (O00482 whole entry): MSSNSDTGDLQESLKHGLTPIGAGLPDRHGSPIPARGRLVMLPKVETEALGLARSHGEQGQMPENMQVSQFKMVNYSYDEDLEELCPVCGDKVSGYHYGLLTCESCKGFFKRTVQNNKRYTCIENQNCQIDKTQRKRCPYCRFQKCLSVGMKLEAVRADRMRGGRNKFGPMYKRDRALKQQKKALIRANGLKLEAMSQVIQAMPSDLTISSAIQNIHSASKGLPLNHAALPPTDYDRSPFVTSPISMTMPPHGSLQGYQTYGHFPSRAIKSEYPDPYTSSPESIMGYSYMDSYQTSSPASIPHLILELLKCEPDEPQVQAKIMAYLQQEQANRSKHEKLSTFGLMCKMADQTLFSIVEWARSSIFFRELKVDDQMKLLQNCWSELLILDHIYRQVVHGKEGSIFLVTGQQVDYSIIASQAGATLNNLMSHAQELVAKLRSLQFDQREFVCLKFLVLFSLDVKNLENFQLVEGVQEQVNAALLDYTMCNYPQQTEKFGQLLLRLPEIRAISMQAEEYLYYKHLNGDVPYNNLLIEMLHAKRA

Turning to `C=C(c1ccccc1)C12CCC(O)C1CC(CCCCCCCCCCCOP(=O)([O-])OCC[N+](C)(C)C)=C2c1ccccc1` (stereo not drawn) [Compound 12g, 11-(6-exo-hydroxy-3-phenyl-3a-(1-phenylvinyl)-1,3a,4,5,6,6a-hexahydropentalen-2-yl)undecyl (2-(trimethylammonio)ethyl) phosphate], in assay [1], the pEC50 is 5.29 and the “Relative Efficacy” value turned out to be 0.93. For the same molecule, the ΔTm at 50 µM in assay [2] (setting [3]) was -1.7 °C.

Turning to `C=C(c1ccccc1)[C@@]12CC[C@@H](O)C1CC(CCCCCC)=C2c1cc(N)cc(F)c1` (mixture of isomers) [Compound 18g, (Exo)-4-(3-amino-5-fluorophenyl)-5-hexyl-3a-(1-phenylvinyl)-1,2,3,3a,6,6a-hexahydropentalen-1-ol], in assay [1], the “EC50 (μM)” value was “cnc” and the “Relative Efficacy” value is listed as 0.99. Moreover, in assay [2] (setting [3]), the ΔTm at 50 µM turned out to be 1.5 °C.

In the case of `C=C(c1ccccc1)[C@@]12CC[C@@H](NC(C)=O)C1CC(CCCCCC)=C2c1ccccc1` (stereo partly drawn) [Compound 35-exo, N-((endo or exo)-5-hexyl-4-phenyl-3a-(1-phenylvinyl)-1,2,3,3a,6,6a-hexahydropentalen-1-yl) acetamide], the pEC50 in assay [1] is 4.77. The ΔTm at 50 µM in assay [2] (setting [3]) was -1.1 °C.

For `C=C(c1ccccc1)C12CCC(O)C1CC(CCCCCOP(=O)([O-])OCC[N+](C)(C)C)=C2c1ccccc1` (stereo not drawn) [Compound 6g, 5-(6-exo-hydroxy-3-phenyl-3a-(1-phenylvinyl)-1,3a,4,5,6,6a-hexahydropentalen-2-yl)pentyl (2-(trimethylammonio)ethyl) phosphate], in assay [1], the “EC50 (μM)” value was “cnc” and the “Relative Efficacy” value was 0.00. Moreover, the ΔTm at 50 µM in assay [2] (setting [3]) was under 1 °C.

On to `C=C(c1ccccc1)C12CC[C@@H](O)C1CC(CCCCCC)=C2c1cccc(O)c1` (mixture of isomers) [Compound 15f, (Exo)-5-hexyl-4-(3-hydroxyphenyl)-3a-(1-phenylvinyl)-1,2,3,3a,6,6a-hexahydropentalen-1-ol], for which, in assay [1], the “EC50 (μM)” value was “cnc” and the “Relative Efficacy” value came out at 0.85. Also, in assay [2] (setting [3]), the ΔTm at 50 µM stood at 1.4 °C.

`C=C(c1ccccc1)[C@@]12CC[C@@H](OS(C)(=O)=O)C1CC(CCCCCC)=C2c1ccccc1` (stereo partly drawn) [Compound 30-exo, (Endo or Exo) 5-hexyl-4-phenyl-3a-(1-phenylvinyl)-1,2,3,3a,6,6a-hexahydropentalen-1-yl methanesulfonate]: in assay [1], the pEC50 was 6.00 and the “Relative Efficacy” value is 0.14. In addition, the ΔTm at 50 µM in assay [2] (setting [3]) was determined as 1.1 °C.

Regarding `C=C(c1ccccc1)[C@@]12CC[C@@H](OC(N)=O)C1CC(CCCCCC)=C2c1ccccc1` (stereo partly drawn) [Compound 29-exo, (Endo or Exo)-5-hexyl-4-phenyl-3a-(1-phenylvinyl)-1,2,3,3a,6,6a-hexahydropentalen-1-yl carbamate], in assay [1], the “EC50 (μM)” value was “cnc” and the “Relative Efficacy” value amounted to 0.14. For the same molecule, the ΔTm at 50 µM in assay [2] (setting [3]) amounted to 1.54 °C.

Turning to `C=C(c1ccccc1)[C@@]12CC[C@@H](O)[C@@H]1CC(CCCCCCCO)=C2c1ccccc1` (relative stereo) [Compound 8e, Exo-5-(7-hydroxyheptyl)-4-phenyl-3a-(1-phenylvinyl)-1,2,3,3a,6,6a-hexahydropentalen-1-ol], in assay [1], the pEC50 was 6.70 and the “Relative Efficacy” value is recorded as 1.26. Further, the ΔTm at 50 µM in assay [2] (setting [3]) amounted to 3.7 °C.

For the molecule `C=C(c1ccccc1)C12CCC(O)C1CC(CCCCCCO)=C2c1ccccc1` (stereo not drawn) [Compound 7e, Exo-5-(6-hydroxyhexyl)-4-phenyl-3a-(1-phenylvinyl)-1,2,3,3a,6,6a-hexahydropentalen-1-ol], in assay [1], the negative logarithm of the EC50 (pEC50) is 6.00 and the “Relative Efficacy” value is 1.74. In assay [2] (setting [3]), the ΔTm at 50 µM worked out at 3.3 °C.

Take `C=C(c1ccccc1)[C@@]12CC[C@@H](O)[C@@H]1CC(CCCCCCCCC(=O)O)=C2c1ccccc1` (relative stereo) [Compound 10f, 9-(6-exo-hydroxy-3-phenyl-3a-(1-phenylvinyl)-1,3a,4,5,6,6a-hexahydropentalen-2-yl)nonanoic acid]: in assay [1], the pEC50 is 5.74 and the “Relative Efficacy” value is on record as 3.39. In assay [2] (setting [3]), the ΔTm at 50 µM came to 3 °C.

For the molecule `C=C(c1ccccc1)[C@@]12CC[C@@H](O)[C@@H]1CC(CCCCCC(=O)O)=C2c1ccccc1` (relative stereo) [Compound 7f, 6-(6-exo-hydroxy-3-phenyl-3a-(1-phenylvinyl)-1,3a,4,5,6,6a-hexahydropentalen-2-yl)hexanoic acid], in assay [1], the pEC50 is 5.05 and the “Relative Efficacy” value is recorded as 2.22. Further, the ΔTm at 50 µM in assay [2] (setting [3]) is 5.5 °C.

For `C=C(c1ccccc1)[C@@]12CC[C@@H](O)C1CC(CCCCCCCCOC(C)=O)=C2c1ccccc1` (stereo partly drawn) [Compound 47-endo, (Exo or Endo) 8-(6-hydroxy-3-phenyl-3a-(1-phenylvinyl)-1,3a,4,5,6,6a-hexahydropentalen-2-yl)octyl acetate], the “Relative Efficacy” value in assay [1] was determined as 1.48. Moreover, the “ΔTm (mean +/− SEM) (° C.)” value in assay [2] (50 μM compound, relative to DLPC-bound LRH-1, 50 µM) was “ns (Ns = Tm changes were less than 1° C.)”.

`C=C(c1ccccc1)[C@@]12CCC(=O)C1CC(CCCCCC)=C2c1ccccc1` (stereo in doubt) [Compound 27, 5-hexyl-4-phenyl-3a-(1-phenylvinyl)-3,3a,6,6a-tetrahydropentalen-1 (2H)-one]: the “Relative Efficacy” value in assay [1] is on record as −0.42. In addition, the ΔTm at 50 µM in assay [2] (setting [3]) was under 1 °C.

As for `C=C(c1ccccc1)C12CCC(OS(=O)(=O)NC(N)=O)C1CC(CCCCCC)=C2c1ccccc1` (stereo not drawn) [Compound 50-endo, (Endo or Exo)-5-hexyl-4-phenyl-3a-(1-phenylvinyl)-1,2,3,3a,6,6a-hexahydropentalen-1-yl carbamoylsulfamate], the “LRH-1 activation” value in assay [1] (WT LRH-1) is “comparable or slightly higher LRH-1 activation”. The “stabilization of LRH-1-ligand complex / Tm shift” value in assay [2] (WT LRH-1) is on record as “greatly stabilized the LRH-1-ligand complex”.

For the molecule `CCCCCCC1=C(c2ccccc2)[C@]2(C(C)c3ccccc3)CC[C@H](O)C2C1` (stereo partly drawn) [Compound 39-endo, (Endo or Exo)-5-hexyl-4-phenyl-3a-(1-phenylethyl)-1,2,3,3a,6,6a-hexahydropentalen-1-ol], the “Relative Efficacy” value in assay [1] stood at 0.13. Besides, the ΔTm at 50 µM in assay [2] (setting [3]) turned out to be 0.4 °C.

Regarding `C=C(c1ccccc1)[C@@]12CC[C@@H](O)[C@@H]1CC(CCCCCCC(=O)O)=C2c1ccccc1` (relative stereo) [Compound 8f, 7-(6-exo-hydroxy-3-phenyl-3a-(1-phenylvinyl)-1,3a,4,5,6,6a-hexahydropentalen-2-yl)heptanoic acid], in assay [1], the pEC50 is 5.40 and the “Relative Efficacy” value turned out to be 1.17. Further, the ΔTm at 50 µM in assay [2] (setting [3]) was 3.7 °C.

As to `C=C(c1ccccc1)[C@@]12CC[C@@H](O)[C@@H]1CC(CCCCO)=C2c1ccccc1` (relative stereo) [Compound 5e, Exo-5-(4-hydroxybutyl)-4-phenyl-3a-(1-phenylvinyl)-1,2,3,3a,6,6a-hexahydropentalen-1-ol], in assay [1], the pEC50 was 5.85 and the “Relative Efficacy” value is 0.83. In addition, the ΔTm at 50 µM in assay [2] (setting [3]) came out at 3.1 °C.

As for `C=C(c1ccccc1)C12CCC(O)C1CC(CCCCCCCOP(=O)([O-])OCC[N+](C)(C)C)=C2c1ccccc1` (stereo not drawn) [Compound 8g, 7-(6-exo-hydroxy-3-phenyl-3a-(1-phenylvinyl)-1,3a,4,5,6,6a-hexahydropentalen-2-yl)heptyl (2-(trimethylammonio)ethyl) phosphate], in assay [1], the “EC50 (μM)” value is “cnc” and the “Relative Efficacy” value is 0.81. Besides, in assay [2] (setting [3]), the ΔTm at 50 µM stood at 2.9 °C.

As to `C=C(c1ccccc1OC)[C@@]12CC[C@@H](O)C1CC(CCCCCC)=C2c1ccccc1` (mixture of isomers) [Compound 22, (Exo)-5-hexyl-3a-(1-(2-methoxyphenyl)vinyl)-4-phenyl-1,2,3,3a,6,6a-hexahydropentalen-1-ol], in assay [1], the “EC50 (μM)” value is on record as “cnc” and the “Relative Efficacy” value is 0.42. The ΔTm at 50 µM in assay [2] (setting [3]) is under 1 °C.

For the molecule `C=C(c1ccccc1)C12CCC(O)C1CC(CCCCC(=O)O)=C2c1ccccc1` (stereo not drawn) [Compound 6f, 5-(6-exo-hydroxy-3-phenyl-3a-(1-phenylvinyl)-1,3a,4,5,6,6a-hexahydropentalen-2-yl)pentanoic acid], in assay [1], the “EC50 (μM)” value is recorded as “cnc” and the “Relative Efficacy” value was 0.60. The ΔTm at 50 µM in assay [2] (setting [3]) stood at 1.3 °C.

Consider `C=C(c1ccccc1)[C@@]12CC[C@@H](O)[C@@H]1CC(CCCCCCCCCCOP(=O)([O-])OCC[N+](C)(C)C)=C2c1ccccc1` (relative stereo) [Compound 11g, 10-(6-exo-hydroxy-3-phenyl-3 a-(1-phenylvinyl)-1,3a,4,5,6,6a-hexahydropentalen-2-yl)decyl (2-(trimethylammonio)ethyl) phosphate], for which, in assay [1], the pEC50 was 5.30 and the “Relative Efficacy” value is reported as 2.48. The ΔTm at 50 µM in assay [2] (setting [3]) is -2.4 °C.

In the case of `C=C(c1ccccc1)C12CCC(O)C1CC(CCCCOP(=O)([O-])OCC[N+](C)(C)C)=C2c1ccccc1` (stereo not drawn) [Compound 5g, 4-(6-exo-hydroxy-3-phenyl-3a-(1-phenylvinyl)-1,3a,4,5,6,6a-hexahydropentalen-2-yl)butyl (2-(trimethylammonio)ethyl) phosphate], in assay [1], the “EC50 (μM)” value is listed as “cnc” and the “Relative Efficacy” value was 0.33. The ΔTm at 50 µM in assay [2] (setting [3]) was under 1 °C.

Values taken from patent US12415770B2, “Modulators of liver receptor homologue 1 (LRH-1) and uses” (Emory University, priority 2017, dated 2025).
